Consider 14 compounds from patent US20250171438A1 (Agios Pharmaceuticals, Inc., priority 2022, published 2025).

The target in this test is T1, human PAH with the R408W mutation (Homo sapiens, UniProt P00439, R408W).
T1 construct: expressed in transfected cells
T1 sequence (P00439 1-452 R408W): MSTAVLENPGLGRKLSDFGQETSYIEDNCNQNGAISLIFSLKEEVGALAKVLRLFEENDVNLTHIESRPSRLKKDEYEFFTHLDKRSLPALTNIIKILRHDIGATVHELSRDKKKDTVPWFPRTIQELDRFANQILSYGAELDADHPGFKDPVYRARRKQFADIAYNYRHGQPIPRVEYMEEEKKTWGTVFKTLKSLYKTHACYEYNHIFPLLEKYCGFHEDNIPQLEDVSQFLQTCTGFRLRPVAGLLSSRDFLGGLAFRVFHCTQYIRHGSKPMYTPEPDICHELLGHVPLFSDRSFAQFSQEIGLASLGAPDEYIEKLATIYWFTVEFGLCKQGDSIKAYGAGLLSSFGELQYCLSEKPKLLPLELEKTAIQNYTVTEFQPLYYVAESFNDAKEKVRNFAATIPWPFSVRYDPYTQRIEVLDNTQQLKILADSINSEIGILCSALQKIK
Nature of the test: Cell Based Phenylalanine Flux Assay. Particulars: A375 cells expressing human R408W PAH; 24 hrs compound incubation; 13C-Tyrosine by LC-MS; average where tested multiple times; read-out: AC50.

SMILES strings stand for the structures. Bounds are passed on as bounds.

The term AC50 denotes the concentration at which the activity in the assay is half-maximal. Turning to `O=C(c1cnn2cc(F)ccc12)N1CCc2[nH]cnc2[C@@H]1c1nc2c(F)cccc2s1` [Example 1216, (R)-(4-(4-fluorobenzo[d]thiazol-2-yl)-6,7-dihydro-1H-imidazo[4,5-c]pyridin-5(4H)-yl)(6-fluoropyrazolo[1,5-a]pyridin-3-yl)methanone], the AC50 fell in the range of 1000 to 5000 nM.
Consider `O=C(c1cncs1)N1CCc2[nH]cnc2[C@H]1c1nc2c(F)cccc2s1` [Example 1217, (S)-(4-(4-fluorobenzo[d]thiazol-2-yl)-6,7-dihydro-1H-imidazo[4,5-c]pyridin-5(4H)-yl)(thiazol-5-yl)methanone], for which the AC50 fell in the range of 500 to 1000 nM.
`O=C(c1cncs1)N1CCc2[nH]cnc2[C@@H]1c1nc2c(F)cccc2s1` [Example 1218, (R)-(4-(4-fluorobenzo[d]thiazol-2-yl)-6,7-dihydro-1H-imidazo[4,5-c]pyridin-5(4H)-yl)(thiazol-5-yl)methanone]: the AC50 fell in the range of 1000 to 5000 nM.
The value for `O=C(c1ncc(Cl)s1)N1CCc2[nH]cnc2[C@H]1c1nc2c(F)cccc2s1` [Example 1219] was < 500 nM.
On to `O=C(c1ncc(Cl)s1)N1CCc2[nH]cnc2[C@@H]1c1nc2c(F)cccc2s1` [Example 1220, (R)-(5-chlorothiazol-2-yl)(4-(4-fluorobenzo[d]thiazol-2-yl)-6,7-dihydro-1H-imidazo[4,5-c]pyridin-5(4H)-yl)methanone], for which the AC50 lay within 1000 to 5000 nM.
On to `O=C(c1cnn2ccccc12)N1CCc2[nH]cnc2[C@H]1c1nc2c(Cl)cccc2s1` [Example 1221, (S)-(4-(4-chlorobenzo[d]thiazol-2-yl)-6,7-dihydro-1H-imidazo[4,5-c]pyridin-5(4H)-yl)(pyrazolo[1,5-a]pyridin-3-yl)methanone], for which the AC50 is < 500 nM.
On to `O=C(c1cnn2ccccc12)N1CCc2[nH]cnc2[C@@H]1c1nc2c(Cl)cccc2s1` [Example 1222, (R)-(4-(4-chlorobenzo[d]thiazol-2-yl)-6,7-dihydro-1H-imidazo[4,5-c]pyridin-5(4H)-yl)(pyrazolo[1,5-a]pyridin-3-yl)methanone], for which the AC50 fell in the range of 1000 to 5000 nM.
`O=C(c1cnco1)N1CCc2[nH]cnc2[C@H]1c1nc2c(F)cccc2s1` [Example 1223, (S)-(4-(4-fluorobenzo[d]thiazol-2-yl)-6,7-dihydro-1H-imidazo[4,5-c]pyridin-5(4H)-yl)(oxazol-5-yl)methanone]: the AC50 is 500 to 1000 nM.
As to `O=C(c1cnco1)N1CCc2[nH]cnc2[C@@H]1c1nc2c(F)cccc2s1` [Example 1224, (R)-(4-(4-fluorobenzo[d]thiazol-2-yl)-6,7-dihydro-1H-imidazo[4,5-c]pyridin-5(4H)-yl)(oxazol-5-yl)methanone], the AC50 was 1000 to 5000 nM.
Consider `O=C(c1ncco1)N1CCc2[nH]cnc2[C@H]1c1nc2c(F)cccc2s1` [Example 1225, (S)-(4-(4-fluorobenzo[d]thiazol-2-yl)-6,7-dihydro-1H-imidazo[4,5-c]pyridin-5(4H)-yl)(oxazol-2-yl)methanone], for which the AC50 lay in the range of 500 to 1000 nM.
As for `O=C(c1ncco1)N1CCc2[nH]cnc2[C@@H]1c1nc2c(F)cccc2s1` [Example 1226, (R)-(4-(4-fluorobenzo[d]thiazol-2-yl)-6,7-dihydro-1H-imidazo[4,5-c]pyridin-5(4H)-yl)(oxazol-2-yl)methanone], the half-maximal activity concentration (AC50) is > 5000 nM.
With `O=C(c1cnc(Cc2ccccc2)s1)N1CCc2[nH]cnc2[C@H]1c1nc2ccccc2s1` [Example 1227], the AC50 lay in the range of 1000 to 5000 nM.
With `O=C(c1cnc(Cc2ccccc2)s1)N1CCc2[nH]cnc2[C@@H]1c1nc2ccccc2s1` [Example 1228, (R)-(4-(benzo[d]thiazol-2-yl)-6,7-dihydro-1H-imidazo[4,5-c]pyridin-5(4H)-yl)(2-benzylthiazol-5-yl)methanone], the AC50 lay within 1000 to 5000 nM.
On to `Cn1cc(-c2ncc(C(=O)N3CCc4[nH]cnc4[C@H]3c3nc4ccccc4s3)s2)cn1` [Example 1229], for which the concentration at half-maximal activity (AC50) is < 500 nM.
